Laboratory results: paper PMC5830399, “Aggregating sequences that occur in many proteins constitute weak spots of bacterial proteostasis” (Nature Communications, 2018)
Converted amounts (≈) assume the structure as drawn. Peptide text beside a SMILES is read from it. * marks the point of attachment. FITC = O=C1OC2(c3ccc(O)cc3Oc3cc(O)ccc32)c2ccc(NC(=S)*)cc21

Assays:
Format in all cases: cell-based, Escherichia coli
E. coli O157:H7 [1] = assay: Flow cytometry of bacteria treated with FITC peptides (uptake) and propidium iodide; details: for cells positive for FITC (peptide uptake): E. coli O157:H7, FITC-labeled peptide at MIC, flow cytometry; for PI-positive cells (membrane permeabilization): E. coli O157:H7, peptide at MIC, N = 4
Experimental: Using a double staining technique with propidium iodide (PI) and FITC peptides, killing rate and peptide uptake were evaluated in a two-dimensional analysis. Briefly, end-exponential growth phase E. coli O157 cells (10^8 CFU/mL) were washed with PBS and treated with peptides (P2 or Pro2/ FITC labeled) at MIC value for different time periods. Treated bacteria were again washed with PBS buffer three times. One microliter of PI (Invitrogen) was added to the bacteria, and after incubation for 5 min, the mixture was aliquoted (500 µL) into FACS tubes. To correlate the activity of the peptides with cell death, the fluorescence intensity was measured in two channels using the Gallios^TM Flow Cytometer, PI: excitation 536 nm and emission 617 nm, FITC: excitation 490 nm and emission 525 nm. Heated bacteria at 90 °C for 10 min were used as PI-positive control.

E. coli O157 = details: HPLC-purified peptide
Text: In order to investigate whether APR redundancy does result in proteostatic collapse, we selected resynthesized and high-performance liquid chromatography (HPLC)-purified four positive peptides from the screen, P2, P5, P14, and P105, as well as three negative peptides, P3, P4, and P11, and confirmed their MIC and minimum bactericidal concentration (MBC) values (Table 1). […] These IBs, which are also called large polar aggregates, could be stained with pentameric formyl thiophene acetic acid (pFTAA, Fig. 1j and supplementary Fig. 3), an extensively characterized amyloid-specific dye[20]–[22], which specifically binds to amyloid-like aggregates as well as disease-associated protein IBs[22]. This IB-staining pattern could be observed for all bactericidal peptides, but not for any of the other peptides, although some other pFTAA-positive structures could be discerned (Supplementary Fig. 3). We confirmed the cross-β-structure content of IB using thioflavin-T staining and correlative atomic force microscopy nanoimaging and Fourier transform infrared spectroscopy (Supplementary Note 2 and Supplementary Fig. 4).

E. coli O157:H7 [2] = details: E. coli O157(:H7); HPLC-purified peptide; broth microdilution (EUCAST), LB, overnight 37 °C, OD 590 nm
Experimental: The MICs of active peptides were determined via the Broth microdilution assay according to the EUCAST guideline, which was performed in 96-well polystyrene flat bottom microtiter plates (BD Biosciences). Briefly, a single colony was inoculated into 5 mL LB medium and grown to the end-exponential growth phase in a shaking incubator at 37 °C. Cultures were subsequently diluted to an OD600 (optical density) of 0.002 ([…]) in fresh LB medium. One hundred microliters of LB medium with different concentration of peptides ranging from 100 to 0.75 µg/mL were serially diluted to the sterile 96-well plate (at least three wells in each plate). Afterwards, 100 µL of the diluted bacteria were pipetted into 96-well plates containing different concentration of peptides. In each plate, the grown bacteria with the maximum concentration of carrier and medium were considered as positive and negative controls, respectively. Thereafter, 96-well plates were statically incubated overnight at 37 °C to allow bacterial growth. OD was measured at 590 nm for 1 s using a multipurpose ultraviolet–visible plate reader, and the absorbance of the growth bacteria was measured using a Perkin Elmer spectrophotometer (1420 Multilabel Counter Victor 3).

| Compound | cells positive for FITC (peptide uptake) (E. coli O157:H7 [1]; after 15 min, N = 4, mean and s.d.) [%] | cells positive for FITC (peptide uptake) (E. coli O157:H7 [1]; after 1 h and beyond) [%] | PI-positive cells (membrane permeabilization) (E. coli O157:H7 [1]; after 15 min) [%] | PI-positive cells (membrane permeabilization) (E. coli O157:H7 [1]; after 3 h) [%] | MBC (E. coli O157) [µg/mL] | MIC (E. coli O157:H7 [2]) [µg/mL] |
| --- | --- | --- | --- | --- | --- | --- |
| CC(C)C[C@H](NC(=O)CNC(=O)[C@H](CCCNC(=N)N)NC(=O)[C@@H]1CCCN1C(=O)[C@H](CCCNC(=N)N)NC(=O)[C@H](CCCNC(=N)N)NC(=O)[C@@H](NC(=O)[C@H](CC(C)C)NC(=O)[C@H](C)NC(=O)[C@H](CC(C)C)NC(=O)CNC(=O)[C@H](CC(C)C)NC(=O)CNC(=O)[C@H](CCCNC(=N)N)NC(=S)Nc1ccc2c(c1)C(=O)OC21c2ccc(O)cc2Oc2cc(O)ccc21)C(C)C)C(=O)NCC(=O)N[C@@H](CC(C)C)C(=O)N[C@@H](C)C(=O)N[C@@H](CC(C)C)C(=O)N[C@H](C(=O)N[C@@H](CCCNC(=N)N)C(=O)N[C@@H](CCCNC(=N)N)C(=O)O)C(C)C [FITC-P2] ({FITC}-RGLGLALVRRPRGLGLALVRR-OH; N-terminus and C-terminus assumed) | 97.7 ± 2.9 | ~100 | 2.1 ± 1.3 | 85 ± 13.2 | – | – |
| CC(C)C[C@H](NC(=O)[C@H](C)NC(=O)[C@H](CCCNC(=N)N)NC(=O)[C@@H]1CCCN1C(=O)[C@H](CCCNC(=N)N)NC(=O)[C@H](CCCNC(=N)N)NC(=O)[C@H](CC(C)C)NC(=O)[C@H](CC(C)C)NC(=O)[C@@H](NC(=O)[C@@H](NC(=O)[C@H](CC(C)C)NC(=O)[C@H](CC(C)C)NC(=O)[C@H](C)NC(=O)[C@H](CCCNC(=N)N)NC(=O)[C@@H](N)CCCNC(=N)N)[C@@H](C)O)[C@@H](C)O)C(=O)N[C@@H](CC(C)C)C(=O)N[C@H](C(=O)N[C@H](C(=O)N[C@@H](CC(C)C)C(=O)N[C@@H](CC(C)C)C(=O)N[C@@H](CCCNC(=N)N)C(=O)N[C@@H](CCCNC(=N)N)C(=O)O)[C@@H](C)O)[C@@H](C)O [P5R] (H-RRALLTTLLRRPRALLTTLLRR-OH) | – | – | – | – | 12 (≈ 4.51 µM) | 12 (≈ 4.51 µM) |
| CC(C)C[C@H](NC(=O)[C@H](C)NC(=O)[C@H](CCCNC(=N)N)NC(=O)[C@@H]1CCCN1C(=O)[C@H](CCCNC(=N)N)NC(=O)[C@H](CCCNC(=N)N)NC(=O)[C@H](CC(C)C)NC(=O)[C@H](CC(C)C)NC(=O)[C@@H](NC(=O)[C@@H](NC(=O)[C@H](CC(C)C)NC(=O)[C@H](CC(C)C)NC(=O)[C@H](C)NC(=O)[C@@H](N)CCCNC(=N)N)[C@@H](C)O)[C@@H](C)O)C(=O)N[C@@H](CC(C)C)C(=O)N[C@H](C(=O)N[C@H](C(=O)N[C@@H](CC(C)C)C(=O)N[C@@H](CC(C)C)C(=O)N[C@@H](CCCNC(=N)N)C(=O)N[C@@H](CCCNC(=N)N)C(=O)O)[C@@H](C)O)[C@@H](C)O [P5] (H-RALLTTLLRRPRALLTTLLRR-OH) | – | – | – | – | 6 (≈ 2.4 µM) | 6 (≈ 2.4 µM) |
| CC(C)C[C@H](NC(=O)CNC(=O)[C@H](CCCNC(=N)N)NC(=O)[C@@H]1CCCN1C(=O)[C@H](CCCNC(=N)N)NC(=O)[C@H](CCCNC(=N)N)NC(=O)[C@@H]1CCCN1C(=O)[C@H](CC(C)C)NC(=O)[C@H](C)NC(=O)[C@@H]1CCCN1C(=O)CNC(=O)[C@H](CC(C)C)NC(=O)CNC(=O)[C@@H](N)CCCNC(=N)N)C(=O)NCC(=O)N1CCC[C@H]1C(=O)N[C@@H](C)C(=O)N[C@@H](CC(C)C)C(=O)N1CCC[C@H]1C(=O)N[C@@H](CCCNC(=N)N)C(=O)N[C@@H](CCCNC(=N)N)C(=O)O [P2Pro] (H-RGLGPALPRRPRGLGPALPRR-OH) | – | – | – | – | >100 | – |
| CC(C)C[C@H](NC(=O)CNC(=O)[C@H](CCCNC(=N)N)NC(=O)[C@@H]1CCCN1C(=O)[C@H](CCCNC(=N)N)NC(=O)[C@H](CCCNC(=N)N)NC(=O)[C@H](C)NC(=O)[C@H](CC(C)C)NC(=O)[C@H](CC(C)C)NC(=O)[C@H](C)NC(=O)[C@H](CC(C)C)NC(=O)[C@H](CC(C)C)NC(=O)CNC(=O)[C@@H](N)CCCNC(=N)N)C(=O)N[C@@H](CC(C)C)C(=O)N[C@@H](C)C(=O)N[C@@H](CC(C)C)C(=O)N[C@@H](CC(C)C)C(=O)N[C@@H](C)C(=O)N[C@@H](CCCNC(=N)N)C(=O)N[C@@H](CCCNC(=N)N)C(=O)O [P14] (H-RGLLALLARRPRGLLALLARR-OH) | – | – | – | – | 6 (≈ 2.55 µM) | 6 (≈ 2.55 µM) |
| CC(C)C[C@H](NC(=O)[C@H](C)NC(=O)[C@@H](N)CCCNC(=N)N)C(=O)N[C@@H](CC(C)C)C(=O)N[C@@H](CCCNC(=N)N)C(=O)N[C@H](C(=O)N[C@@H](CC(C)C)C(=O)N[C@@H](CC(C)C)C(=O)N[C@@H](CCCNC(=N)N)C(=O)N[C@@H](CCCNC(=N)N)C(=O)N1CCC[C@H]1C(=O)N[C@@H](CCCNC(=N)N)C(=O)N[C@@H](C)C(=O)N[C@@H](CC(C)C)C(=O)N[C@@H](CC(C)C)C(=O)N[C@H](C(=O)N[C@H](C(=O)N[C@@H](CC(C)C)C(=O)N[C@@H](CC(C)C)C(=O)N[C@@H](CCCNC(=N)N)C(=O)N[C@@H](CCCNC(=N)N)C(=O)O)[C@@H](C)O)[C@@H](C)O)[C@@H](C)O [P105] (H-RALLRTLLRRPRALLTTLLRR-OH) | – | – | – | – | 12 (≈ 4.69 µM) | 12 (≈ 4.69 µM) |
